Legend:
[1] = system: HT1080 cell xenografts; assay: HT1080 cell xenografts in nude male mice, tumor mass; assay type: in vivo; conditions: i.p. on alternate days for 4 weeks, Casodex 0.1 μg/mice (4 µg/Kg), DHT 0,1 μg/mice (3 μg/Kg), six animals per group
Experimental: Figure 1 Casodex inhibits the EGF-triggered DNA synthesis in human fibrosarcoma HT1080 cells and reduces the growth of HT1080 xenografts. Human fibrosarcoma HT1080 cells were used. In A, quiescent cells on coverslips were left un-stimulated or stimulated for 18 h with the indicated compounds. […] After in vivo pulse with BrdU (100 μM; Sigma), BrdU incorporation was analyzed by IF and expressed as % of total nuclei. Several independent experiments were performed in duplicate and the results were derived from at least 400 scored cells for each coverslip. Mean and SEM are shown. n represents the number of experiments. (**) p value< 0,001. […] In B, xenografts were established in nude male mice as described in Methods. […] Volumes of HT1080 cell xenografts were measured at the indicated times in two dimensions by a caliper and expressed as tumor mass (mm^3). […]
HT1080 cells in 50% (v/v) Matrigel solution in phosphate-buffered saline (PBS; pH 7.4) were subcutaneously injected in the dorsal posterior region at 2.5 x 10^6 cells/male athymic mice (CD mice, Charles-River Italia) without hormone priming. […] The tumor volumes of HT1080 cell xenografts were measured at indicated intervals in two dimensions by a caliper and expressed as tumor mass (mm^3). This is calculated according to the formula: a^2 × b × 0.5, where a is the width and b is the length of the tumor. […]

[2] = system: AR/Src complex; set-up: method as in PMID 17486077; conditions: androgen-challenged prostate cancer LNCaP cells; cited from earlier work
From the text: Such a crosstalk has been previously analyzed in prostate cancer-derived LNCaP cells. […] The S1 peptide derives from the 377-386 amino-acid sequence of AR that is rich in prolines and is responsible for association of AR with t ...

Compound	Growth of HT1080 xenografts (tumor mass) [1]	Competition for AR association with the Src-SH3 domain [2]
CC(O)(CS(=O)(=O)c1ccc(F)cc1)C(=O)Nc1ccc(C#N)c(C(F)(F)F)c1 (centres unmarked) [Casodex]	tumor growth was drastically reduced	
Ac-PPPHPHARIK-NH2 [S1 peptide]		competes for this association
